Results taken from patent US8129417B2, “Substituted octahydrocyclopenta[C]pyrrol-4-amines as calcium channel blockers” (Abbott Laboratories, priority 2008, dated 2012).
Read-outs that look alike come from different tables or passages of the source.

Molecular target: human Cav2.2 (Homo sapiens, UniProt Q00975)
Assay: Assessment of calcium channel activity using FLIPR (Ca2+ influx in IMR32 cells)
Type: cell-based
Conditions: for IC50: 2 μM nifedipine, depolarized with 80 mM KCl; for inhibition at 10 µM: IMR-32, @ 10 μM, read-out: percent inhibition
Description: (i) In Vitro Methods—Assessment of Calcium Channel Activity Using FLIPR:
The IMR32 cells were maintained in MEM media containing 10% (v/v) FBS, 1% (v/v) antibiotic/antimitotic, 1% (v/v) sodium pyruvate and 1% (v/v) MEM NEAA. Following dissociation in 0.05% (v/v) trypsin/EDTA, cells were seeded into black 1×96-well plates (Corning Cellbind) at a density of 1-1.2×10^5 cells/well and incubated in the maintenance media above for 48 hours at 37° C. […] To determine the IC50 values, the percent inhibition of the compound at each concentration was determined relative to the activity in the absence of inhibitor, and data was fitted using non-linear regression sigmoidal dose response curve analysis with GraphPad Prism®.

[1] = 3 minute pre-incubation with compound (*)
[2] = 60 minute pre-incubation with compound

Chain of human Cav2.2 (Q00975 whole entry): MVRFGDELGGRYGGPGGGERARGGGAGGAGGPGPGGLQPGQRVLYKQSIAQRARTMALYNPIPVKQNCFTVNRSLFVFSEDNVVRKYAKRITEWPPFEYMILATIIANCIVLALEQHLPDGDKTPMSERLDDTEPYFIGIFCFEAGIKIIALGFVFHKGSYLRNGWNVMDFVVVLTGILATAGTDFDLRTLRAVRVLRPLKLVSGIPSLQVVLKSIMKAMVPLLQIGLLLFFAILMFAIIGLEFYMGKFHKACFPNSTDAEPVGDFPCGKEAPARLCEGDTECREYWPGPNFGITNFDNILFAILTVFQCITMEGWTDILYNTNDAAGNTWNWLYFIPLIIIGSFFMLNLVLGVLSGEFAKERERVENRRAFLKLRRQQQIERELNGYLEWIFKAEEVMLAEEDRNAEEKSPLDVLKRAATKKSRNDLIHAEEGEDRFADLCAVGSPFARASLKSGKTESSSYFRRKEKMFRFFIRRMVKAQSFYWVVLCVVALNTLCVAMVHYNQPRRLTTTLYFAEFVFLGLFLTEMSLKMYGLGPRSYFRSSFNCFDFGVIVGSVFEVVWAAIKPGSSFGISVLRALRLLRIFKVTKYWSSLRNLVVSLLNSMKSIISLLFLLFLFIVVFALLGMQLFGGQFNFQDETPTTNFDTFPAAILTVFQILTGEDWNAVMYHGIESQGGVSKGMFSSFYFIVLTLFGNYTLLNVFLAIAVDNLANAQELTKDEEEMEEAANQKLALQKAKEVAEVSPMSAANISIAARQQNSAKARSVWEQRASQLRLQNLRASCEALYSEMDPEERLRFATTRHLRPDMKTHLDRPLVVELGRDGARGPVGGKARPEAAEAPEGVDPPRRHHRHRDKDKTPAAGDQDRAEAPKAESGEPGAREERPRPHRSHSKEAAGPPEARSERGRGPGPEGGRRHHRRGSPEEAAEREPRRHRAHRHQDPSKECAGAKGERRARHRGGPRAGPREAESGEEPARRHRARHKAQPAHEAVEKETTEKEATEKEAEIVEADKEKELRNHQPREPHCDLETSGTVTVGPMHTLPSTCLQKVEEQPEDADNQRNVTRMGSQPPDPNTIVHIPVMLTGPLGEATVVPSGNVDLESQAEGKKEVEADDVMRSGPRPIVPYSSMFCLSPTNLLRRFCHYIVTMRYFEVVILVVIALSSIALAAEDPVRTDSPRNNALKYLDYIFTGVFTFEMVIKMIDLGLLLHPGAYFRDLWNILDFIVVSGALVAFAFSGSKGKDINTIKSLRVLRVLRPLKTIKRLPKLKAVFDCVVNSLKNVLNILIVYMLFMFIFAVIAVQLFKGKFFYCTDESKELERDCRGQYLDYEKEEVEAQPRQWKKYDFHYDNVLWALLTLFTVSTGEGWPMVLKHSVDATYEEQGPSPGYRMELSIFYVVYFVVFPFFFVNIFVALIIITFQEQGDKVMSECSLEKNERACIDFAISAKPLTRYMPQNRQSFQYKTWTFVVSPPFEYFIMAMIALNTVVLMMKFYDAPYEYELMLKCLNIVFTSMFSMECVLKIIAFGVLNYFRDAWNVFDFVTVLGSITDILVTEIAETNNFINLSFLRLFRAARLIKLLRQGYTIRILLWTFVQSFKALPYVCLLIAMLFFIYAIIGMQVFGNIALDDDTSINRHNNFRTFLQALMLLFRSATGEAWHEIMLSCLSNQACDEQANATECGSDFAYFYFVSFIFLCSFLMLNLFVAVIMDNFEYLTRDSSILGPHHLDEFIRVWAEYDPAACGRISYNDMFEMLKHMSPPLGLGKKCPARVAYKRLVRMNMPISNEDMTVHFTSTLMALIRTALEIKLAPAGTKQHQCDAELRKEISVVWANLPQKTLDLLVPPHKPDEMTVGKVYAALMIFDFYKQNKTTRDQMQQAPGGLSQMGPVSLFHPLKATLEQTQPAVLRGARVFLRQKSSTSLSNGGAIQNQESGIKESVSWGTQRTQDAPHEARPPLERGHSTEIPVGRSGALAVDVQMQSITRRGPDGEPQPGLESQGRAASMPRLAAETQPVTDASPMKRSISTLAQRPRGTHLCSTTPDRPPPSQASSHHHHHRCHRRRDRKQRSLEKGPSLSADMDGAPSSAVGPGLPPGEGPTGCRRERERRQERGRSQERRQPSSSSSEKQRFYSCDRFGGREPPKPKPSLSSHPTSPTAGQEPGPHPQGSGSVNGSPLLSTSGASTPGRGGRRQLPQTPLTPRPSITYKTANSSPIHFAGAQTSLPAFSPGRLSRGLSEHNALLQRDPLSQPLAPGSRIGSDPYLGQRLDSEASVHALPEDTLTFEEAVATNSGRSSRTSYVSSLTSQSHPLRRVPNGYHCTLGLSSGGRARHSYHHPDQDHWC
Chain of human Cav2.2 (P54289 25-946 partner limits assumed): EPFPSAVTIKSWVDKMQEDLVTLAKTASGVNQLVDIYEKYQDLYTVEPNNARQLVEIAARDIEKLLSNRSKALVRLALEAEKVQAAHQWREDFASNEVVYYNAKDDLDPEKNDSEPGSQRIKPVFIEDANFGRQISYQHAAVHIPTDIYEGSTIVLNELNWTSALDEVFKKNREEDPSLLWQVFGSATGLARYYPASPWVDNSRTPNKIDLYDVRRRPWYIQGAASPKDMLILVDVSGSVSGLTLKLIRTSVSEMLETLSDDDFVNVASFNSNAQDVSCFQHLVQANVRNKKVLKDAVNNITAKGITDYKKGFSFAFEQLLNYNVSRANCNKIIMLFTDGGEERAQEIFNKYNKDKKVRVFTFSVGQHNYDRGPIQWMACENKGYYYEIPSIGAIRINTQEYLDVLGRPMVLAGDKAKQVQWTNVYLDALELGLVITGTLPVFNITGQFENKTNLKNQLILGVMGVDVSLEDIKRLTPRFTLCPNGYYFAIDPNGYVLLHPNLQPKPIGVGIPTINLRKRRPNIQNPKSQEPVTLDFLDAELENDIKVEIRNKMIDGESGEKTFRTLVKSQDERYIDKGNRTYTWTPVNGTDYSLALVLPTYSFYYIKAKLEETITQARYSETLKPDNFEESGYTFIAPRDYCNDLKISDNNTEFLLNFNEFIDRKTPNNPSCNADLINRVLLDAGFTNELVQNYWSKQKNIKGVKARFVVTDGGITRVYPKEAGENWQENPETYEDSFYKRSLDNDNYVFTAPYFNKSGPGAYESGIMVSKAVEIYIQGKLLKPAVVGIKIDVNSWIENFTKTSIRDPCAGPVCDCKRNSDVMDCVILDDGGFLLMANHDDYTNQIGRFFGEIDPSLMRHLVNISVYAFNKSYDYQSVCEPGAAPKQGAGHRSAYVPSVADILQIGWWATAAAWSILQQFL
Chain of human Cav2.2 (P54289 947-1103 partner limits assumed): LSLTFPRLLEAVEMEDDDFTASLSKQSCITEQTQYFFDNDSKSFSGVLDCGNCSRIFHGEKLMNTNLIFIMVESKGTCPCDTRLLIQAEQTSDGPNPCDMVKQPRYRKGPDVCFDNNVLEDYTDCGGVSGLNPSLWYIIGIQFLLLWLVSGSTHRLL
Chain of human Cav2.2 (P54284 whole entry partner): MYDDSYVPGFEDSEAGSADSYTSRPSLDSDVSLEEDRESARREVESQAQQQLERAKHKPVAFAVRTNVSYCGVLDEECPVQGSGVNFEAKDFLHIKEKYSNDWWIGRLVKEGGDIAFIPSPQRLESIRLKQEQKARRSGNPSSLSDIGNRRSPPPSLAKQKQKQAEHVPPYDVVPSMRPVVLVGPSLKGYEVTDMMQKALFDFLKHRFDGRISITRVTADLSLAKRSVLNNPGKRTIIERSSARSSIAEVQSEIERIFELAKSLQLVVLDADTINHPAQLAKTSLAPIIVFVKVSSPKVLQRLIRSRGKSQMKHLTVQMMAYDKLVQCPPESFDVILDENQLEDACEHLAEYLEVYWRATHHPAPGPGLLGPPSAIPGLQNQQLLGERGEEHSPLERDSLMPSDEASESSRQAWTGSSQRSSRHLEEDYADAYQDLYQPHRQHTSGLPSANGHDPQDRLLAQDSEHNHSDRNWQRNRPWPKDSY

SMILES	IC50 [2] [nM]	also measured
O=C(N[C@H]1CC[C@H]2CN(Cc3ccccc3)C[C@H]21)C1(c2ccccc2)CCCC1 (relative stereo) [Example 1, N-[(3aS*,4S*,6aR*)-2-benzyloctahydrocyclopenta[c]pyrrol-4-yl]-1-phenylcyclopentanecarboxamide]	–	IC50 [1]: 3500 nM
O=C(N[C@@H]1CC[C@H]2CN(Cc3ccccc3)C[C@H]21)C1(c2ccccc2)CCCC1 (relative stereo) [Example 2, N-[(3aS*,4R*,6aR*)-2-benzyloctahydrocyclopenta[c]pyrrol-4-yl]-1-phenylcyclopentanecarboxamide]	–	IC50 [1]: 4200 nM
O=C(N[C@@H]1CC[C@@H]2CN(Cc3ccccc3)C[C@@H]21)C(c1ccccc1)C1CCCCC1 (relative stereo) [Example 3, N-[(3aR*,4R*,6aS*)-2-benzyloctahydrocyclopenta[c]pyrrol-4-yl]-2-cyclohexyl-2-phenylacetamide]	–	inhibition at 10 µM (60 minute pre-incubation): 91%
CC(C)C(C(=O)N[C@@H]1CC[C@@H]2CN(Cc3ccccc3)C[C@@H]21)c1ccccc1 (relative stereo) [Example 5, N-[(3aR*,4R*,6aS*)-2-benzyloctahydrocyclopenta[c]pyrrol-4-yl]-3-methyl-2-phenylbutanamide]	–	IC50 [1]: 3800 nM
CC(C)C(C(=O)N[C@H]1CC[C@@H]2CN(Cc3ccccc3)C[C@@H]21)c1ccccc1 (relative stereo) [Example 6, N-[(3aR*,4S*,6aS*)-2-benzyloctahydrocyclopenta[c]pyrrol-4-yl]-3-methyl-2-phenylbutanamide]	–	IC50 [1]: 2200 nM
O=C(N[C@H]1CC[C@H]2CN(Cc3ccccc3)C[C@H]21)C(c1ccccc1)C1CCCC1 (relative stereo) [Example 7, N-[(3aS*,4S*,6aR*)-2-benzyloctahydrocyclopenta[c]pyrrol-4-yl]-2-cyclopentyl-2-phenylacetamide]	–	IC50 [1]: 1800 nM
O=C(N[C@H]1CC[C@H]2CN(Cc3ccccc3)C[C@H]21)C1(c2ccccc2)CCCCC1 (relative stereo) [Example 9, N-[(3aS*,4S*,6aR*)-2-benzyloctahydrocyclopenta[c]pyrrol-4-yl]-1-phenylcyclohexanecarboxamide]	–	IC50 [1]: 1800 nM
O=C(N[C@@H]1CC[C@H]2CN(Cc3ccccc3)C[C@H]21)C1(c2ccccc2)CCCCC1 (relative stereo) [Example 10, N-[(3aS*,4R*,6aR*)-2-benzyloctahydrocyclopenta[c]pyrrol-4-yl]-1-phenylcyclohexanecarboxamide]	–	IC50 [1]: 1300 nM
O=C(N[C@H]1CC[C@H]2CN(Cc3ccccc3)C[C@H]21)C(C1CCCCC1)C1CCCCC1 (relative stereo) [Example 11, N-[(3aS*,4S*,6aR*)-2-benzyloctahydrocyclopenta[c]pyrrol-4-yl]-2,2-dicyclohexylacetamide]	4000	–
O=C(N[C@H]1CC[C@H]2CN(Cc3cccc(C(F)(F)F)c3)C[C@H]21)C(C1CCCCC1)C1CCCCC1 (relative stereo) [Example 124, 2,2-dicyclohexyl-N-{(3aS*,4S*,6aR*)-2-[3-(trifluoromethyl)benzyl]octahydrocyclopenta[c]pyrrol-4-yl}acetamide]	700	–
CCC(CC)C(=O)N[C@H]1CC[C@H]2CN(Cc3cccc(C(F)(F)F)c3)C[C@H]21 (relative stereo) [Example 125, 2-ethyl-N-{(3aS*,4S*,6aR*)-2-[3-(trifluoromethyl)benzyl]octahydrocyclopenta[c]pyrrol-4-yl}butanamide]	2800	–
CCCC(CCC)C(=O)N[C@H]1CC[C@H]2CN(Cc3cccc(C(F)(F)F)c3)C[C@H]21 (relative stereo) [Example 126, 2-propyl-N-{(3aS*,4S*,6aR*)-2-[3-(trifluoromethyl)benzyl]octahydrocyclopenta[c]pyrrol-4-yl}pentanamide]	1000	–
O=C(N[C@H]1CC[C@H]2CN(Cc3cccc(C(F)(F)F)c3)C[C@H]21)C1CCCCC1 (relative stereo) [Example 127, N-{(3aS*,4S*,6aR*)-2-[3-(trifluoromethyl)benzyl]octahydrocyclopenta[c]pyrrol-4-yl}cyclohexanecarboxamide]	1500	–
O=C(N[C@H]1CC[C@H]2CN(Cc3cccc(C(F)(F)F)c3)C[C@H]21)C1CCCCCC1 (relative stereo) [Example 128, N-{(3aS*,4S*,6aR*)-2-[3-(trifluoromethyl)benzyl]octahydrocyclopenta[c]pyrrol-4-yl}cycloheptanecarboxamide]	1000	–
O=C(N[C@H]1CC[C@H]2CN(Cc3cccc(C(F)(F)F)c3)C[C@H]21)C1CCCC1 (relative stereo) [Example 129, N-{(3aS*,4S*,6aR*)-2-[3-(trifluoromethyl)benzyl]octahydrocyclopenta[c]pyrrol-4-yl}cyclopentanecarboxamide]	2900	–
O=C(CC(c1ccccc1)c1ccccc1)N[C@H]1CC[C@H]2CN(Cc3cccc(C(F)(F)F)c3)C[C@H]21 (relative stereo) [Example 131, 3,3-diphenyl-N-{(3aS*,4S*,6aR*)-2-[3-(trifluoromethyl)benzyl]octahydrocyclopenta[c]pyrrol-4-yl}propanamide]	700	–
O=C(N[C@H]1CC[C@H]2CN(Cc3cccc(C(F)(F)F)c3)C[C@H]21)C(c1ccc(F)cc1)c1ccc(F)cc1 (relative stereo) [Example 136, 2,2-bis(4-fluorophenyl)-N-{(3aS*,4S*,6aR*)-2-[3-(trifluoromethyl)benzyl]octahydrocyclopenta[c]pyrrol-4-yl}acetamide]	1100	–
CC(C)C[C@H](NC(=O)OC(C)(C)C)C(=O)N[C@@H]1CC[C@@H]2CN(Cc3cccc(C(F)(F)F)c3)C[C@@H]21 (relative stereo) [Example 137, N^2-(tert-butyloxycarbonyl)-N^1-{(3aR*,4R*,6aS*)-2-[3-(trifluoromethyl)benzyl]octahydrocyclopenta[c]pyrrol-4-yl}-L-leucinamide]	600	–
O=C(CC(c1ccccc1)c1ccccc1)N[C@@H]1CC[C@H]2CN(Cc3cccc(C(F)(F)F)c3)C[C@H]21 (relative stereo) [Example 141, 3,3-diphenyl-N-{(3aS*,4R*,6aR*)-2-[3-(trifluoromethyl)benzyl]octahydrocyclopenta[c]pyrrol-4-yl}propanamide]	600	–
c1ccc(CN2C[C@@H]3CC[C@@H](NC4CC4)[C@@H]3C2)cc1 (relative stereo) [Example 197, (3aS*,4R*,6aR*)-2-benzyl-N-cyclopropyloctahydrocyclopenta[c]pyrrol-4-amine]	69700	–
c1ccc(CN2C[C@@H]3CC[C@H](NC4CC4)[C@@H]3C2)cc1 (relative stereo) [Example 198, (3aS*,4S*,6aR*)-2-benzyl-N-cyclopropyloctahydrocyclopenta[c]pyrrol-4-amine]	40400	–
O=S(=O)(c1cccc(C(F)(F)F)c1)N(C1CC1)[C@@H]1CC[C@H]2CN(Cc3ccccc3)C[C@H]21 (relative stereo) [Example 200, N-[(3aS*,4R*,6aR*)-2-benzyloctahydrocyclopenta[c]pyrrol-4-yl]-N-cyclopropyl-3-(trifluoromethyl)benzenesulfonamide]	1000	–
O=S(=O)(c1cccc(C(F)(F)F)c1)N(C1CC1)[C@H]1CC[C@H]2CNC[C@H]21 (relative stereo) [Example 201, N-cyclopropyl-N-[(3aS*,4S*,6aR*)-octahydrocyclopenta[c]pyrrol-4-yl]-3-(trifluoromethyl)benzenesulfonamide]	5200	–
CC(C)C(C(=O)N1C[C@H]2CC[C@H](NCc3ccccc3)[C@H]2C1)c1ccccc1 (relative stereo) [Example 216, (3aR*,4S*,6aS*)-N-benzyl-2-(3-methyl-2-phenylbutanoyl)octahydrocyclopenta[c]pyrrol-4-amine]	–	inhibition at 10 µM (3 minute pre-incubation (*)): 85%
O=S(=O)(N[C@H]1CC[C@H]2CN(Cc3cccc(C(F)(F)F)c3)C[C@H]21)c1cccc(C(F)(F)F)c1 (single isomer, unassigned) [Example 186, 3-(trifluoromethyl)-N-{(3aS*,4S*,6aR*)-2-[3-(trifluoromethyl)benzyl]octahydrocyclopenta[c]pyrrol-4-yl}benzenesulfonamide]	600	–
C[C@H](C(=O)N[C@@H]1CC[C@H]2CN(Cc3ccccc3)C[C@H]21)c1ccccc1 [Example 19, (2S)—N-[(3aS,4R,6aR)-2-benzyloctahydrocyclopenta[c]pyrrol-4-yl]-2-phenylpropanamide]	–	inhibition at 10 µM (3 minute pre-incubation (*)): 25%
O=C(N[C@@H]1CC[C@H]2CN(Cc3ccccc3)C[C@H]21)C(C1CCCCC1)C1CCCCC1 [Example 20, N-[(3aS,4R,6aR)-2-benzyloctahydrocyclopenta[c]pyrrol-4-yl]-2,2-dicyclohexylacetamide]	1800	–
CCCC(CCC)C(=O)N[C@@H]1CC[C@H]2CN(Cc3ccccc3)C[C@H]21 [Example 21, N-[(3aS,4R,6aR)-2-benzyloctahydrocyclopenta[c]pyrrol-4-yl]-2-propylpentanamide]	–	IC50 [1]: 10100 nM

More lines, main results first:

IC50 [2] [nM]	SMILES	also measured
600	CC(C)C(C(=O)N[C@H]1CC[C@H]2CN(Cc3cccc(C(F)(F)F)c3)C[C@H]21)c1ccccc1 (relative stereo) [Example 122, 3-methyl-2-phenyl-N-{(3aS*,4S*,6aR*)-2-[3-(trifluoromethyl)benzyl]octahydrocyclopenta[c]pyrrol-4-yl}butanamide]	–
900	O=C(N[C@H]1CC[C@H]2CN(Cc3cccc(C(F)(F)F)c3)C[C@H]21)C(c1ccccc1)c1ccccc1 (relative stereo) [Example 135, 2,2-diphenyl-N-{(3aS*,4S*,6aR*)-2-[3-(trifluoromethyl)benzyl]octahydrocyclopenta[c]pyrrol-4-yl}acetamide]	–
